Laboratory results published in patent US20240109937A1, “BINDING PEPTIDES AND USES THEREOF” (The Johns Hopkins University, priority 2021, published 2024).

Legend:
[1] = system: tAIF; assay: Nuclear import and localization of tAIF in ISO/Ca2+-treated ES-CMs; format: cell-based, mouse; conditions: ISO/Ca2+-treated Dsg2^mut/mut ES-CMs, 7 days
Procedure: Mouse embryonic stem cells (ESs) were maintained and differentiated, and the absence of mycoplasma contamination was confirmed prior to experimental studies. Briefly, mouse ESs from both WT and Dsg2^mut/mut mice were derived from E3.5 embryos and maintained on gelatin-coated dishes in maintenance medium (Glasgow minimum essential medium supplemented with 10% fetal bovine serum and 3 μM Chir99021 and 1 μM PD98059 or 1000 U/ml ESGRO; Millipore), Glutamax, sodium pyruvate, and MEM non-essential amino acids (Thermo Fisher Scientific). […]
All myocardium (sedentary and exercised mouse cohorts and patient myocardial biopsies) were formalin-fixed and paraffin-embedded (FFPE). […] Following three additional washes, ProLong Gold Antifade Mountant with DAPI (Thermofisher, 936931) were applied, and slides were coverslipped, and immunoreactive signal was detected via laser scanning microscopy (Zeiss LSM 510 Meta). […]
Following immunostaining, AIF-fluorescence and nuclear fluorescence (DAPI) were detected via laser scanning microscopy (Zeiss LSM 510 Meta) via a sequential fashion to avoid crosstalk between fluorophores. Merged images were obtained using Zeiss LSM software, and approximately 3-10 Regions of Interest (ROIs) were assessed per condition (mouse myocardium and patient myocardial biopsies). […]

[2] = system: Dsg2^mut/mut ES-CMs; assay: FACS analysis of apoptosis (AnnexinV/propidium iodide) in ISO/Ca2+-treated ES-CMs; format: cell-based, mouse; conditions: 7 days, 5 μM or 25 μM peptide
Procedure: Mouse embryonic stem cells (ESs) were maintained and differentiated, and the absence of mycoplasma contamination was confirmed prior to experimental studies. Briefly, mouse ESs from both WT and Dsg2^mut/mut mice were derived from E3.5 embryos and maintained on gelatin-coated dishes in maintenance medium (Glasgow minimum essential medium supplemented with 10% fetal bovine serum and 3 μM Chir99021 and 1 μM PD98059 or 1000 U/ml ESGRO; Millipore), Glutamax, sodium pyruvate, and MEM non-essential amino acids (Thermo Fisher Scientific). For cardiomyocyte (CM) differentiation, ESs were plated in IMDM/Ham's F12 (Cellgro, at 3:1) supplemented with N2, B27, penicillin/streptomycin, 2 mM GlutaMAX, 0.05% BSA, 5 ng/ml L-ascorbic acid (Sigma-Aldrich), and α-monothioglycerol (MTG; Sigma-Aldrich) at a final density of 100,000 cells/ml to allow spheroid formation. After 48 hours, embryoid bodies were collected and transferred to ultra-low attachment plastic surface and induced for 40 hours with Activin A and Bmp4 (R&D Systems). Cells were then dissociated and plated as monolayers for 48 hours in the presence of 10 μM XAV to allow cardiomyocyte differentiation. […] (4) After 7 days of treatment, ES-CMs were stained with AnnexinV in a buffer containing 10 mM HEPES (pH 7.4), 140 mM NaCl, 2.5 mM CaCl2, followed by the addition of 1 mg/ml propidium iodide and analyzed by flow cytometry.

[3] = target: PPIA (Homo sapiens, UniProt P62937); conditions: read-out: KD, affinity to PPIA-binding; cited from earlier work
Chain of PPIA (P62937 whole entry, species assumed): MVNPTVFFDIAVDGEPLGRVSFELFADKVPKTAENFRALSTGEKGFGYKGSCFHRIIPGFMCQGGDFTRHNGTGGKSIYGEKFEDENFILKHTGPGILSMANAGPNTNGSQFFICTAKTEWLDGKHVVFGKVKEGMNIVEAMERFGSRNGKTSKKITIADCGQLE

[4] = system: HMGB1; assay: HMGB1 cytosolic/nuclear levels in ISO/Ca2+-treated ES-CMs; format: cell-based, mouse; conditions: ISO/Ca2+-treated Dsg2^mut/mut ES-CMs, 7 days, peptide
Procedure: Mouse embryonic stem cells (ESs) were maintained and differentiated, and the absence of mycoplasma contamination was confirmed prior to experimental studies. Briefly, mouse ESs from both WT and Dsg2^mut/mut mice were derived from E3.5 embryos and maintained on gelatin-coated dishes in maintenance medium (Glasgow minimum essential medium supplemented with 10% fetal bovine serum and 3 μM Chir99021 and 1 μM PD98059 or 1000 U/ml ESGRO; Millipore), Glutamax, sodium pyruvate, and MEM non-essential amino acids (Thermo Fisher Scientific). For cardiomyocyte (CM) differentiation, ESs were plated in IMDM/Ham's F12 (Cellgro, at 3:1) supplemented with N2, B27, penicillin/streptomycin, 2 mM GlutaMAX, 0.05% BSA, 5 ng/ml L-ascorbic acid (Sigma-Aldrich), and α-monothioglycerol (MTG; Sigma-Aldrich) at a final density of 100,000 cells/ml to allow spheroid formation. After 48 hours, embryoid bodies were collected and transferred to ultra-low attachment plastic surface and induced for 40 hours with Activin A and Bmp4 (R&D Systems). Cells were then dissociated and plated as monolayers for 48 hours in the presence of 10 μM XAV to allow cardiomyocyte differentiation. The resulting ES-CMs were cultured 45 days before experimental procedures were performed. […]

[5] = system: HT-22 cells; conditions: cited from earlier work

| Substance | PPIA-mediated nuclear import of tAIF (immunoblot) [1] | tAIF nuclear localization (immunostaining) [1] | apoptosis (FACS) [2] | Kd [3] | increased cytosolic and decreased nuclear HMGB1 levels [4] | neuroprotective effects in HT-22 cells during the oxidative stress [5] |
| --- | --- | --- | --- | --- | --- | --- |
| NH2-GRKKRRQRRR(βAla)QSVGVSSGKLLIKLKDGRKVETDHI-NH2 (GRKKRRQRRRAQSVGVSSGKLLIKLKDGRKVETDHI; C-terminal amide; MOD_RES (11)..(11) 1,2-dihydro-3(6h)-pyridinone beta-alanine) [TAT-AIF (370-394), Linear peptide, 38 amino acids long, N-terminal TAT fragment for cell uptake] | precluded | precluded | attenuated | 12 µM | prevented | – |
| Ac-CIKLKDGRKVC-NH2 [AIF (381-389) ox, Cyclic peptide, 11 amino acids long] | – | – | – | – | – | provides neuroprotective |
